Measurements reported in patent US8425997B2, “Cobalt bearing polymeric compositions” (Umicore, priority 2008, dated 2013).

Experiment: Aqueous solubility (leaching) of Co, OECD-105 flask method
Format: physicochemical
Procedure: Experiments are performed to determine the aqueous solubility of the Co in the invented polymers. These tests are relevant as indicators for the bioavailability of Co.
[…] The leaching tests are conducted according to the OECD-105 standard flask method, as described in the OECD Guideline for the Testing of Chemicals, adopted on 27 Jul. 1995, and in the Official Journal of the European Communities L 383 A, 54-62 (1992).
The solubility of 3 typical polymers according to the invention is compared to that of 3 commercial products.

For Co-acetylacetonate, the “Solubility of Co in 0.9% NaCl solution, Co” value (solvent: 0.9% NaCl) was 1400 µg/mL and the “Solubility of Co in water, Co” value (solvent: water) was 1600 µg/mL.
